Data published in patent US20090105283A1, “3-HYDROQUINAZOLIN-4-ONE DERIVATIVES FOR USE AS STEAROYL CoA DESATURASE INHIBITORS” (priority 2007, published 2009).

Each molecule was assayed against T1, stearoyl-CoA desaturase (SCD) (Rattus norvegicus, UniProt P07308) (assay: SCD assay with rat liver microsomes ([3H]stearoyl CoA, adapted from Talamo and Bloch)). Conditions: Table 1; rat liver microsomes 0.2 mg/ml assay final, [3H]stearoyl CoA substrate, 30 min preincubation, 45 min reaction, room temperature.
T1 construct: The microsomes were quickly thawed and added to assay buffer so that a concentration of 0.4 mg/ml was achieved; from tissue
T1 sequence (P07308 1-358): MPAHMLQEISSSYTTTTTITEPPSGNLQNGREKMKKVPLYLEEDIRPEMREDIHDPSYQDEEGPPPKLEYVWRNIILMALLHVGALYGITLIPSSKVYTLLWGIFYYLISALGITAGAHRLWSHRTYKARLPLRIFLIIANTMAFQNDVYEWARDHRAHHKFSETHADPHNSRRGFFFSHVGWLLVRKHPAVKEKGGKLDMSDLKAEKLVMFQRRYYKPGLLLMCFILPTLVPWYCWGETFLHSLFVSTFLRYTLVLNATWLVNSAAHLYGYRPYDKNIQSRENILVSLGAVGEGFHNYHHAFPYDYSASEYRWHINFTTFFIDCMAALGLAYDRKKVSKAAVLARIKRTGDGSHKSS
Assay type: biochemical
Excerpt: Male Spraque Dawley Rats were placed on regimented fasting protocol for one week to stimulate SCD enzymatic activity. 48-hour periods were alternated between feeding and fasting to induce and down-regulate SCD activity with SCD activity being induced via carbohydrate rich diet prior to liver perfusion and collection.
The rats were anesthetized with Isoflurane inhalation anesthetic, the liver perfused with cold phosphate buffered saline (PBS), weighed, and chilled in cold homogenization buffer (250 mM sucrose, 10 mM Tris, 1 mM EDTA, pH 7.6.
The livers were finely minced and placed in homogenization tube. 40 mL of homogenization buffer was added to the homogenization tube and the liver homogenized and centrifuged in a pre-chilled […] for 10 min at 4° C.
Following centrifugation, the supernatant was collected and the pellet removed and discarded. The supernatant was centrifuge at 10,000 G for 35 minutes. Following centrifugation, the supernatant was collect and the pellet discarded. The supernatant was then centrifuged in a pre-chilled 45-Ti rotor at 130,000 G (41,000 RPM) for 90 minutes at 4° C.
The supernatant was then aspirated off and the collected microsomal pellet washed in 25 mL of Glycerol PBS (1×PBS 7.4, 20% Glycerol) and resuspended in 4-5 volumes of Glycerol PBS.
The protein concentration of the microsomal preparation was determined by BCA assay (Pierce) and the microsomes were aliquoted and stored at −80° C.
Biobeads were ground to a smaller size in a mortar and pestle and resuspended in 3.6% TCA. The beads were then filtered through […] mesh.
SCD was determined in the desaturase assay buffer. This assay buffer contained 0.1 M Tris buffer, pH 7.2, 2 mM NADH, 4.8 mM ATP, 0.5 mM CoA, 4.8 mM MgCl2, and 0.1% BSA.
1 μl of each compound of Formula I was added to an assay plate by a low volume (0.5-10 μL) multichannel pipette. A DMSO control was also prepared. The microsomes were quickly thawed and added to assay buffer so that a concentration of 0.4 mg/ml was achieved (0.2 mg/ml assay final). 50 μl of the microsome suspension in assay buffer was then added into each well in the compound assay plate, the plate was covered, and the microsomes preincubated with the compounds for 30 minutes on the orbital shaker, 50-75 rpm, at room temperature.
The reaction mixtures were then incubated for 45 minutes on the orbital shaker at 50-75 rpm at room temperature.
The reaction was terminated by the addition of 10 μl of 21% trichloroacetic acid (TCA) to the reaction mixture followed incubation on the orbital shaker for 30 minutes at 50-75 rpm at room temperature followed by centrifugation for 5 minutes at 3700 rpm.
50 μl of a 6% Bio-Bead suspension in H2O was added to the reaction mixture and the assay plate was sealed. The Bio-Bead mixture was incubated on the orbital shaker for 1 hour, 100-150 rpm at room temperature, and then the mixture was centrifuged at 2000 g for 5 minutes to pellet the Bio-Beads.
25 μl of the supernatant was harvested from each well and transferred to a detection plate. 100 μl of OptiPhase SuperMix scinitillation cocktail (containing sufficient NaOH to neutralize the TCA) was added and the solutions mixed by vigorous shaking (300-400 rpm) for 5 minutes at room temperature.

CCCCCC(=O)Nc1ccc2ncn(Cc3ccc(Cl)c(Cl)c3)c(=O)c2c1 [III, N-{3-[(3,4-dichlorophenyl)methyl]-4-oxo-3-hydroquinazolin-6-yl}hexanamide] and CCCCCNC(=O)Nc1ccc2ncn(Cc3ccc(Cl)c(Cl)c3)c(=O)c2c1 [IV, N-{3-[(3,4-dichlorophenyl)methyl]-4-oxo(3-hydroquinazolin-6-yl)}(pentylamino)carboxamide] are within 1.5-fold of each other in IC50: 5310 nM for the first, 3590 nM for the second.

Going from O=C(Nc1ccc2ncn(Cc3ccc(Cl)c(Cl)c3)c(=O)c2c1)OCc1ccccn1 [LXXXIX, N-{3-[(3,4-dichlorophenyl)methyl]-4-oxo(3-hydroquinazolin-6-yl)}(2-pyridylmethoxy)carboxamide] to O=C(Nc1ccc2ncn(Cc3ccc(F)c(Cl)c3)c(=O)c2c1)OCc1ccccc1 [XLVI, N-{3-[(3-chloro-4-fluorophenyl)methyl]-4-oxo(3-hydroquinazolin-6-yl)}(phenylmethoxy)carboxamide], the IC50 falls from 780 nM to 450 nM (1.7-fold). The second is the more potent here.

First: CC(=O)OCC(=O)Nc1ccc2c(=O)n(Cc3ccc(F)c(Cl)c3)cnc2c1 [LXXV, (N-{3-[(3-chloro-4-fluorophenyl)methyl]-4-oxo-3-hydroquinazolin-7-yl}carbamoyl)methyl acetate]
Second: COc1ccc(Cn2cnc3ccc(NC(=O)COC(C)=O)cc3c2=O)cc1 [C, (N-{3-[(4-methoxyphenyl)methyl]-4-oxo-3-hydroquinazolin-6-yl}carbamoyl)methyl acetate]
The IC50 of the first is 3.2-fold lower: 1090 nM for the first, 3500 nM for the second.

Compared with O=C(Nc1ccc2ncn(Cc3ccc(Cl)c(Cl)c3)c(=O)c2c1)Oc1ccc(F)cc1 [XII, N-{3-[(3,4-dichlorophenyl)methyl]-4-oxo(3-hydroquinazolin-6-yl)}(4-fluorophenoxy)carboxamide], COc1ccc(OCC(=O)Nc2ccc3ncn(Cc4ccc(Cl)c(Cl)c4)c(=O)c3c2)cc1 [XVII, N-{3-[(3,4-dichlorophenyl)methyl]-4-oxo(3-hydroquinazolin-6-yl)}-2-(4-methoxyphenoxy)acetamide] is 4.4-fold lower in IC50: 13000 nM for the first, 2980 nM for the second. The second is the more potent here.

Compared with O=C(CSc1ncccn1)Nc1ccc2ncn(Cc3ccc(Cl)c(Cl)c3)c(=O)c2c1 [LV, N-{3-[(3,4-dichlorophenyl)methyl]-4-oxo(3-hydroquinazolin-6-yl)}-2-pyrimidin-2-ylthioacetamide], O=C(COc1ccc(F)cc1F)Nc1ccc2ncn(Cc3ccc(Cl)c(Cl)c3)c(=O)c2c1 [XXVIII, N-{3-[(3,4-dichlorophenyl)methyl]-4-oxo(3-hydroquinazolin-6-yl)}-2-(2,4-difluorophenoxy)acetamide] is 1.6-fold lower in IC50: 5420 nM for the first, 3430 nM for the second. The second is the more potent here.

O=C(Nc1ccc2c(=O)n(Cc3cccc(Cl)c3)cnc2c1)OCc1cccnc1 [LIX, N-{3-[(3-chlorophenyl)methyl]-4-oxo(3-hydroquinazolin-7-yl)}(3-pyridylmethoxy)carboxamide] and O=C(Nc1ccc2c(=O)n(Cc3ccc(Cl)c(F)c3)cnc2c1)OCc1ccccc1 [LXXXIII, N-{3-[(4-chloro-3-fluorophenyl)methyl]-4-oxo(3-hydroquinazolin-7-yl)}(phenylmethoxy)carboxamide] are within 1.5-fold of each other in IC50: 280 nM for the first, 210 nM for the second.

Same assay, conditions: Table 2 (Example 21, procedures of Example 20); rat liver microsomes, [3H]stearoyl CoA substrate

O=C(CO)Nc1ccc2ncn(CCNC(=O)c3cc(Cl)ccc3Cl)c(=O)c2c1 [compound 67, 2,5-dichloro-N-(2-(6-(2-hydroxyacetamido)-4-oxoquinazolin-3(4H)-yl)ethyl)benzamide] and O=C(CO)Nc1ccc2ncn(CCNS(=O)(=O)c3cc(Cl)ccc3Cl)c(=O)c2c1 [compound 71, N-(3-(2-(2,5-dichlorophenylsulfonamido)ethyl)-4-oxo-3,4-dihydroquinazolin-6-yl)-2-hydroxyacetamide] are within 1.5-fold of each other in IC50: 21000 nM for the first, 15000 nM for the second.

First: CC(c1ccc(Cl)c(Cl)c1)n1cnc2ccc(NC(=O)CO)cc2c1=O (centres unmarked) [compound 23, N-(3-(1-(3,4-dichlorophenyl)ethyl)-4-oxo-3,4-dihydroquinazolin-6-yl)-2-hydroxyacetamide]
Second: CCC(c1ccc(Cl)c(Cl)c1)n1cnc2ccc(NC(=O)CO)cc2c1=O (centres unmarked) [compound 26, N-(3-(1-(3,4-dichlorophenyl)propyl)-4-oxo-3,4-dihydroquinazolin-6-yl)-2-hydroxyacetamide]
The IC50 of the first is 16-fold lower: 210 nM for the first, 3300 nM for the second. The first is the more potent here.

First: O=C(CO)Nc1ccc2ncn(Cc3ccc(Cl)c(C(F)(F)F)c3)c(=O)c2c1 [compound 7, N-(3-(4-chloro-3-(trifluoromethyl)benzyl)-4-oxo-3,4-dihydroquinazolin-6-yl)-2-hydroxyacetamide]
Second: O=C(CO)Nc1ccc2ncn(CCOc3cc(Cl)ccc3Cl)c(=O)c2c1 [compound 42, N-(3-(2-(2,5-dichlorophenoxy)ethyl)-4-oxo-3,4-dihydroquinazolin-6-yl)-2-hydroxyacetamide]
The IC50 of the first is 1.5-fold lower: 190 nM for the first, 290 nM for the second. The first is the more potent here.

First: O=C(CO)Nc1ccc2ncn(CCCOc3cc(Cl)ccc3Cl)c(=O)c2c1 [compound 43, N-(3-(3-(2,5-dichlorophenoxy)propyl)-4-oxo-3,4-dihydroquinazolin-6-yl)-2-hydroxyacetamide]
Second: O=C(CO)Nc1ccc2ncn(CCOc3cccc(Cl)c3)c(=O)c2c1 [compound 75, N-(3-(2-(3-chlorophenoxy)ethyl)-4-oxo-3,4-dihydroquinazolin-6-yl)-2-hydroxyacetamide]
The IC50 of the first is 27-fold lower: 55 nM for the first, 1500 nM for the second.

Going from CCC(c1ccc(Cl)c(Cl)c1)n1cnc2ccc(NC(=O)COC(C)=O)cc2c1=O (centres unmarked) [compound 25, 2-(3-(1-(3,4-dichlorophenyl)propyl)-4-oxo-3,4-dihydroquinazolin-6-ylamino)-2-oxoethyl acetate] to O=C(Nc1ccc2ncn(Cc3ccc(Cl)c(Cl)c3)c(=O)c2c1)[C@@H](O)c1ccccc1 [compound 100, (S)—N-(3-(3,4-dichlorobenzyl)-4-oxo-3,4-dihydroquinazolin-6-yl)-2-hydroxy-2-phenylacetamide], the IC50 rises from 500 nM to 2300 nM (4.6-fold).

Compared with O=C(CO)Nc1ccc2c(=O)n(CCCOc3ccccc3F)cnc2c1 [compound 48, N-(3-(3-(2-fluorophenoxy)propyl)-4-oxo-3,4-dihydroquinazolin-7-yl)-2-hydroxyacetamide], O=C(CO)Nc1ccc2c(=O)n(CCOc3ccccc3Cl)cnc2c1 [compound 63, N-(3-(2-(2-chlorophenoxy)ethyl)-4-oxo-3,4-dihydroquinazolin-7-yl)-2-hydroxyacetamide] is 2.2-fold lower in IC50: 11000 nM for the first, 4900 nM for the second. The second is the more potent here.

O=C(NCCO)c1ccc2ncn(Cc3ccc(Cl)c(Cl)c3)c(=O)c2c1 [compound 81, 3-(3,4-dichlorobenzyl)-N-(2-hydroxyethyl)-4-oxo-3,4-dihydroquinazoline-6-carboxamide] and O=C(Nc1ccc2ncn(Cc3ccc(Cl)c(Cl)c3)c(=O)c2c1)[C@H](O)Cc1ccccc1 [compound 96, (R)—N-(3-(3,4-dichlorobenzyl)-4-oxo-3,4-dihydroquinazolin-6-yl)-2-hydroxy-3-phenylpropanamide] are within 1.5-fold of each other in IC50: 2700 nM for the first, 3900 nM for the second.

Going from O=C(CO)Nc1ccc2ncn(CCc3ccc(Cl)cc3)c(=O)c2c1 [compound 37, N-(3-(4-chlorophenethyl)-4-oxo-3,4-dihydroquinazolin-6-yl)-2-hydroxyacetamide] to O=C(CO)Nc1ccc2ncn(CCCNS(=O)(=O)c3cc(Cl)ccc3Cl)c(=O)c2c1 [compound 72, N-(3-(3-(2,5-dichlorophenylsulfonamido)propyl)-4-oxo-3,4-dihydroquinazolin-6-yl)-2-hydroxyacetamide], the IC50 rises from 20 nM to 21000 nM (1000-fold).

In the case of COc1cccc(Cn2cnc3ccc(NC(=O)OCc4ccccc4)cc3c2=O)c1 [compound 12, benzyl 3-(3-methoxybenzyl)-4-oxo-3,4-dihydroquinazolin-6-ylcarbamate], the IC50 is reported as 1400 nM.
